According to patent US8163771B2, “11 β-HSD1 modulators” (Exelixis, Inc., priority 2008, dated 2012):

Target: T1, recombinant human 11 β-HSD1 (Homo sapiens, UniProt P28845)
T1 construct: made in house; host or cells: E. coli
Experiment: 11 β-HSD1 SPA Assay (Scintillation Proximity Assay)
Type: biochemical
Method in brief: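 Scintillation proximity read-out of cortisol formed from 40 nM [3H]cortisone by purified recombinant human enzyme (30-100 nM, E. coli) with 1 mM NADPH, pH7.4, 2 hours at room temperature; beads with cortisol antibody and glycyrrhetinic acid stop the reaction, read next day. IC50 derived from inhibition normalised to background and maximal wells.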

T1 sequence (P28845 whole entry): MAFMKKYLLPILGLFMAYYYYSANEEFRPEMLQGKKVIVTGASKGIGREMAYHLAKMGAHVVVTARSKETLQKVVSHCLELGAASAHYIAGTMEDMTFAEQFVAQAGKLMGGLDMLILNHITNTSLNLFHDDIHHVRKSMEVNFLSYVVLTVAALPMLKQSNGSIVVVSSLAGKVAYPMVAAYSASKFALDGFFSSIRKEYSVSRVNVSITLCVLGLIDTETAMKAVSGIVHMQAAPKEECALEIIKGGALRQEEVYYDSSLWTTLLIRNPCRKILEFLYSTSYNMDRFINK

Structure (SMILES)	IC50 [nM]
CC(C)(Oc1cc(F)c(F)cc1F)C(=O)N[C@H]1C[C@H]2CC[C@@H](C1)N2c1ccc(S(C)(=O)=O)cc1 [Example 234, 2-methyl-N-{8-[4-(methylsulfonyl)phenyl]-8-azabicyclo[3.2.1]oct-3-endo-yl}-2-[(2,4,5-trifluorophenyl)oxy]propanamide]	< 2000
CC(C)(Oc1ccc(F)c(Cl)c1Cl)C(=O)N[C@H]1C[C@H]2CC[C@@H](C1)N2c1ccc(S(C)(=O)=O)cc1 [Example 235, 2-[(2,3-dichloro-4-fluorophenyl)oxy]-2-methyl-N-{8-[4-(methylsulfonyl)phenyl]-8-azabicyclo[3.2.1]oct-3-endo-yl}propanamide]	< 200
CC(C)(Oc1cc(F)c(Cl)cc1Cl)C(=O)N[C@H]1C[C@H]2CC[C@@H](C1)N2c1ccc(S(C)(=O)=O)cn1 [Example 236, 2-[(2,4-dichloro-5-fluorophenyl)oxy]-2-methyl-N-{8-[5-(methylsulfonyl)pyridin-2-yl]-8-azabicyclo[3.2.1]oct-3-endo-yl}propanamide]	< 200
CC(C)(Oc1cc(F)c(Cl)cc1Cl)C(=O)N[C@H]1C[C@H]2CC[C@@H](C1)N2c1ccc(S(C)(=O)=O)cc1 [Example 237, 2-[(2,4-dichloro-5-fluorophenyl)oxy]-2-methyl-N-{8-[4-(methylsulfonyl)phenyl]-8-azabicyclo[3.2.1]oct-3-endo-yl}propanamide]	< 200
CC(C)(Oc1c(Cl)cc(F)cc1Cl)C(=O)N[C@H]1C[C@H]2CC[C@@H](C1)N2c1ccc(S(N)(=O)=O)cn1 [Example 238, N-{8-[5-(aminosulfonyl)pyridin-2-yl]-8-azabicyclo[3.2.1]oct-3-endo-yl}-2-[(2,6-dichloro-4-fluorophenyl)oxy]-2-methylpropanamide]	< 200
CC(C)(Oc1c(Cl)cc(F)cc1Cl)C(=O)N[C@H]1C[C@H]2CC[C@@H](C1)N2c1ccc(S(C)(=O)=O)cc1 [Example 239, 2-[(2,6-dichloro-4-fluorophenyl)oxy]-2-methyl-N-{8-[4-(methylsulfonyl)phenyl]-8-azabicyclo[3.2.1]oct-3-endo-yl}propanamide]	< 200
CC(C)(Oc1ccc(Cl)c(F)c1)C(=O)N[C@H]1C[C@H]2CC[C@@H](C1)N2c1ccc(S(C)(=O)=O)cn1 [Example 240, 2-[(4-chloro-3-fluorophenyl)oxy]-2-methyl-N-{8-[5-(methylsulfonyl)pyridin-2-yl]-8-azabicyclo[3.2.1]oct-3-endo-yl}propanamide]	< 200
CC(C)(Oc1ccc(Cl)c(F)c1)C(=O)N[C@H]1C[C@H]2CC[C@@H](C1)N2c1ccc(S(C)(=O)=O)cc1 [Example 241, 2-[(4-chloro-3-fluorophenyl)oxy]-2-methyl-N-{8-[4-(methylsulfonyl)phenyl]-8-azabicyclo[3.2.1]oct-3-endo-yl}propanamide]	< 2000
CC(C)(Oc1ccc(Cl)c(F)c1)C(=O)N[C@H]1C[C@H]2CC[C@@H](C1)N2c1ccc(S(N)(=O)=O)cn1 [Example 242, N-{8-[5-(aminosulfonyl)pyridin-2-yl]-8-azabicyclo[3.2.1]oct-3-endo-yl}-2-[(4-chloro-3-fluorophenyl)oxy]-2-methylpropanamide]	< 200
CC(C)(Oc1ccc(C(F)(F)F)cc1)C(=O)N[C@H]1C[C@H]2CC[C@@H](C1)N2c1ccc(S(C)(=O)=O)cn1 [Example 243, 2-methyl-N-{8-[5-(methylsulfonyl)pyridin-2-yl]-8-azabicyclo[3.2.1]oct-3-endo-yl}-2-{[4-(trifluoromethyl)phenyl]oxy}propanamide]	< 2000
CC(C)(Oc1ccc(C(F)(F)F)cc1)C(=O)N[C@H]1C[C@H]2CC[C@@H](C1)N2c1ccc(S(N)(=O)=O)cn1 [Example 244, N-{8-[5-(aminosulfonyl)pyridin-2-yl]-8-azabicyclo[3.2.1]oct-3-endo-yl}-2-methyl-2-{[4-(trifluoromethyl)phenyl]oxy}propanamide]	< 2000
CC(C)(Oc1ccc(C(F)(F)F)cc1)C(=O)N[C@H]1C[C@H]2CC[C@@H](C1)N2c1ccc(S(C)(=O)=O)cc1 [Example 245, 2-methyl-N-{8-[4-(methylsulfonyl)phenyl]-8-azabicyclo[3.2.1]oct-3-endo-yl}-2-{[4-(trifluoromethyl)phenyl]oxy}propanamide]	< 2000
CC(C)(Oc1ncc(C(F)(F)F)cc1Cl)C(=O)N[C@H]1C[C@H]2CC[C@@H](C1)N2c1ccc(S(N)(=O)=O)cn1 [Example 246, N-{8-[5-(aminosulfonyl)pyridin-2-yl]-8-azabicyclo[3.2.1]oct-3-endo-yl}-2-{[3-chloro-5-(trifluoromethyl)pyridin-2-yl]oxy}-2-methylpropanamide]	< 2000
CC(C)(Oc1ncc(Cl)cc1F)C(=O)N[C@H]1C[C@H]2CC[C@@H](C1)N2c1ccc(S(N)(=O)=O)cn1 [Example 247, N-{8-[5-(aminosulfonyl)pyridin-2-yl]-8-azabicyclo[3.2.1]oct-3-endo-yl}-2-[(5-chloro-3-fluoropyridin-2-yl)oxy]-2-methylpropanamide]	< 2000
CC(C)(Oc1ncc(C(F)(F)F)cc1Cl)C(=O)N[C@H]1C[C@H]2CC[C@@H](C1)N2c1ccc(S(C)(=O)=O)cn1 [Example 248, 2-{[3-chloro-5-(trifluoromethyl)pyridin-2-yl]oxy}-2-methyl-N-{8-[5-(methylsulfonyl)pyridin-2-yl]-8-azabicyclo[3.2.1]oct-3-endo-yl}propanamide]	< 2000
CC(C)(Oc1ncc(C(F)(F)F)cc1Cl)C(=O)N[C@H]1C[C@H]2CC[C@@H](C1)N2c1ccc(S(C)(=O)=O)cc1 [Example 249, 2-{[3-chloro-5-(trifluoromethyl)pyridin-2-yl]oxy}-2-methyl-N-{8-[4-(methylsulfonyl)phenyl]-8-azabicyclo[3.2.1]oct-3-endo-yl}propanamide]	< 2000
CC(C)(Oc1ccc(F)cc1C(F)(F)F)C(=O)N[C@H]1C[C@H]2CC[C@@H](C1)N2c1ccc(S(C)(=O)=O)cc1 [Example 250, 2-{[4-fluoro-2-(trifluoromethyl)phenyl]oxy}-2-methyl-N-{8-[4-(methylsulfonyl)phenyl]-8-azabicyclo[3.2.1]oct-3-endo-yl}propanamide]	< 200
CC(C)(Oc1c(Cl)cc(F)cc1C(F)(F)F)C(=O)N[C@H]1C[C@H]2CC[C@@H](C1)N2c1ccc(S(N)(=O)=O)cn1 [Example 251, N-{8-[5-(aminosulfonyl)pyridin-2-yl]-8-azabicyclo[3.2.1]oct-3-endo-yl}-2-{[2-chloro-4-fluoro-6-(trifluoromethyl)phenyl]oxy}-2-methylpropanamide]	< 200
CC(C)(Oc1c(Cl)cc(F)cc1C(F)(F)F)C(=O)N[C@H]1C[C@H]2CC[C@@H](C1)N2c1ccc(S(C)(=O)=O)cc1 [Example 252, 2-{[2-chloro-4-fluoro-6-(trifiuoromethyl)phenyl]oxy}-2-methyl-N-{8-[4-(methylsulfonyl)phenyl]-8-azabicyclo[3.2.1]oct-3-endo-yl}propanamide]	< 200
COc1ccc(OC(C)(C)C(=O)NC2CC3CCC(C2)N3c2ccc(S(C)(=O)=O)cn2)c(Cl)c1 (stereo not drawn) [Example 253, 2-{[2-chloro-4-(methyloxy)phenyl]oxy}-2-methyl-N-{8-[5-(methylsulfonyl)pyridin-2-yl]-8-azabicyclo[3.2.1]oct-3-endo-yl}propanamide]	< 200
COc1ccc(OC(C)(C)C(=O)N[C@H]2C[C@H]3CC[C@@H](C2)N3c2ccc(S(C)(=O)=O)cc2)c(Cl)c1 [Example 254, 2-{[2-chloro-4-(methyloxy)phenyl]oxy}-2-methyl-N-{8-[4-(methylsulfonyl)phenyl]-8-azabicyclo[3.2.1]oct-3-endo-yl}propanamide]	< 200
CC(C)(Oc1ccccc1C(F)(F)F)C(=O)N[C@H]1C[C@H]2CC[C@@H](C1)N2c1ccc(S(C)(=O)=O)cn1 [Example 255, 2-methyl-N-{8-[5-(methylsulfonyl)pyridin-2-yl]-8-azabicyclo[3.2.1]oct-3-endo-yl}-2-{[2-(trifluoromethyl)phenyl]oxy}propanamide]	< 200
CC(C)(Oc1ccccc1C(F)(F)F)C(=O)N[C@H]1C[C@H]2CC[C@@H](C1)N2c1ccc(S(N)(=O)=O)cn1 [Example 256, N-{8-[5-(aminosulfonyl)pyridin-2-yl]-8-azabicyclo[3.2.1]oct-3-endo-yl}-2-methyl-2-{[2-(trifluoromethyl)phenyl]oxy}propanamide]	< 200
CC(C)(Oc1ccccc1C(F)(F)F)C(=O)N[C@H]1C[C@H]2CC[C@@H](C1)N2c1ccc(S(C)(=O)=O)cc1 [Example 257, 2-methyl-N-{8-[4-(methylsulfonyl)phenyl]-8-azabicyclo[3.2.1]oct-3-endo-yl}-2-{[2-(trifluoromethyl)phenyl]oxy}propanamide]	< 200
CC(C)(Oc1c(F)cc(F)cc1F)C(=O)N[C@H]1C[C@H]2CC[C@@H](C1)N2c1ccc(S(C)(=O)=O)cn1 [Example 258, 2-methyl-N-{8-[5-(methylsulfonyl)pyridin-2-yl]-8-azabicyclo[3.2.1]oct-3-endo-yl}-2-[(2,4,6-trifluorophenyl)oxy]propanamide]	< 200
CC(C)(Oc1c(F)cc(F)cc1F)C(=O)N[C@H]1C[C@H]2CC[C@@H](C1)N2c1ccc(S(N)(=O)=O)cn1 [Example 259, N-{8-[5-(aminosulfonyl)pyridin-2-yl]-8-azabicyclo[3.2.1]oct-3-endo-yl}-2-methyl-2-[(2,4,6-trifluorophenyl)oxy]propanamide]	< 200
CC(C)(Oc1c(F)cc(F)cc1F)C(=O)N[C@H]1C[C@H]2CC[C@@H](C1)N2c1ccc(S(C)(=O)=O)cc1 [Example 260, 2-methyl-N-{8-[4-(methylsulfonyl)phenyl]-8-azabicyclo[3.2.1]oct-3-endo-yl}-2-[(2,4,6-trifluorophenyl)oxy]propanamide]	< 200
CC(C)(Oc1cc(F)c(Cl)cc1Cl)C(=O)N[C@H]1C[C@H]2CC[C@@H](C1)N2c1ccc(S(N)(=O)=O)cn1 [Example 261, N-{8-[5-(aminosulfonyl)pyridin-2-yl]-8-azabicyclo[3.2.1]oct-3-endo-yl}-2-[(2,4-dichloro-5-fluorophenyl)oxy]-2-methylpropanamide]	< 200
